From US10081641B2, “Pesticidally active heterocyclic derivatives with sulphur containing substituents” (Syngenta Participations AG, priority 2014, dated 2018)

Legend:
Type in all cases: in vivo
[1] = test system: Spodoptera littoralis (Egyptian Cotton Leaf Worm); assay: Example B2: Spodoptera littoralis, systemic test via lettuce roots in agar; details: 144 h, test rate of 12.5 ppm, uptake via lettuce roots, 6 days after infestation, read-out: effect in at least one of the three categories (mortality, anti-feedancy, or growth inhibition)
Description: Example B2: Spodoptera littoralis (Egyptian Cotton Leaf Worm)
Test compounds were applied by pipette from 10′000 ppm DMSO stock solutions into 24-well plates and mixed with agar. Lettuce seeds were placed on the agar and the multi well plate was closed by another plate which contains also agar. After 7 days the roots have absorbed the compound and the lettuce has grown into the lid plate. The lettuce leafs were now cut off into the lid plate. Spodoptera eggs were pipetted through a plastic stencil on a humid gel blotting paper and the plate closed with it. The samples were assessed for mortality, anti-feedant effect and growth inhibition in comparison to untreated samples 6 days after infestation.

[2] = test system: Plutella xylostella (Diamond Back Moth); assay: Example B3: Plutella xylostella, artificial diet; details: 120 h, application rate of 200 ppm, artificial diet, L2 larvae, 5 days after infestation, read-out: effect in at least one of the two categories (mortality or growth inhibition)
Description: Example B3: Plutella xylostella (Diamond Back Moth)
24-well microtiter plates with artificial diet were treated with aqueous test solutions prepared from 10′000 ppm DMSO stock solutions by pipetting. After drying, the plates were infested with L2 larvae (10 to 15 per well). The samples were assessed for mortality and growth inhibition in comparison to untreated samples 5 days after infestation.

[3] = test system: Diabrotica Balteata (Corn Root Worm); assay: Example B4: Diabrotica balteata, sprayed maize sprouts; details: 96 h, application rate of 200 ppm, L2 larvae, 4 days after infestation, read-out: effect in at least one of the two categories (mortality or growth inhibition)
Description: Example B4: Diabrotica Balteata (Corn Root Worm)
Maize sprouts, placed on an agar layer in 24-well microtiter plates were treated with aqueous test solutions prepared from 10′000 ppm DMSO stock solutions by spraying. After drying, the plates were infested with L2 larvae (6 to 10 per well). The samples were assessed for mortality and growth inhibition in comparison to untreated samples 4 days after infestation.

[4] = test system: Frankliniella occidentalis (Western Flower Thrips); assay: Example B12: Frankliniella occidentalis, sprayed sunflower leaf discs; details: foliar, 168 h, application rate of 200 ppm, mixed ages, 7 days after infestation
Description: Example B12: Frankliniella occidentalis (Western Flower Thrips)
Sunflower leaf discs were placed on agar in 24-well microtiter plates and sprayed with aqueous test solutions prepared from […] stock solutions. After drying the leaf discs were infested with a Frankliniella population of mixed ages. The samples were assessed for mortality 7 days after infestation.

[5] = test system: Myzus persicae (Green Peach Aphid); assay: Example B5: Myzus persicae, sprayed sunflower leaf discs; details: foliar, 144 h, application rate of 200 ppm, mixed ages, 6 days after infestation
Description: Example B5: Myzus persicae (Green Peach Aphid)
Sunflower leaf discs were placed on agar in a 24-well microtiter plate and sprayed with aqueous test solutions prepared from 10′000 ppm DMSO stock solutions. After drying, the leaf discs were infested with an aphid population of mixed ages. The samples were assessed for mortality 6 days after infestation.

[6] = test system: Myzus persicae (Green Peach Aphid); assay: Example B6: Myzus persicae, roots of pea seedlings in test solution; details: 144 h, test rate of 24 ppm, pea seedling roots in test solution, 6 days
Description: Example B6: Myzus persicae (Green Peach Aphid)
Roots of pea seedlings infested with an aphid population of mixed ages were placed directly in the aqueous test solutions prepared from 10′000 DMSO stock solutions. The samples were assessed for mortality 6 days after placing seedlings in test solutions.

[7] = test system: Bemisia tabaci (Cotton White Fly); assay: Example B7: Bemisia tabaci, sprayed cotton leaf discs; details: foliar, 144 h, application rate of 200 ppm, adult white flies, 6 days after incubation
Description: Example B7: Bemisia tabaci (Cotton White Fly)
Cotton leaf discs were placed on agar in 24-well microtiter plates and sprayed with aqueous test solutions prepared from 10′000 ppm DMSO stock solutions. After drying the leaf discs were infested with adult white flies. The samples were checked for mortality 6 days after incubation.

[8] = test system: Thrips tabaci (Onion Thrips); assay: Example B11: Thrips tabaci, sprayed sunflower leaf discs; details: foliar, 144 h, application rate of 200 ppm, mixed ages, 6 days after infestation
Description: Example B11: Thrips tabaci (Onion Thrips)
Sunflower leaf discs were placed on agar in 24-well microtiter plates and sprayed with aqueous test solutions prepared from 10′000 ppm DMSO stock solutions. After drying the leaf discs were infested with a thrips population of mixed ages. The samples were assessed for mortality 6 days after infestation.

[9] = test system: Euschistus heros (Neotropical Brown Stink Bug); assay: Example B8: Euschistus heros, sprayed soybean leaf; details: 120 h, application rate of 200 ppm, N-2 nymphs, 5 days after infestation
Description: Example B8: Euschistus heros (Neotropical Brown Stink Bug)
Soybean leaf on agar in 24-well microtiter plates were sprayed with aqueous test solutions prepared from 10′000 ppm DMSO stock solutions. After drying the leaf were infested with N-2 nymphs. The samples were assessed for mortality 5 days after infestation.

[10] = test system: Spodoptera littoralis (Egyptian Cotton Leaf Worm); assay: Example B1: Spodoptera littoralis, sprayed cotton leaf discs; details: foliar, 72 h, application rate of 200 ppm, cotton leaf discs, L1 larvae, 3 days after infestation, read-out: control (at least one of mortality, anti-feedant effect, growth inhibition)
Description: Example B1: Spodoptera littoralis (Egyptian Cotton Leaf Worm)
Cotton leaf discs were placed on agar in 24-well microtiter plates and sprayed with aqueous test solutions prepared from 10′000 ppm DMSO stock solutions. After drying, the leaf discs were infested with five L1 larvae. The samples were assessed for mortality, anti-feedant effect, and growth inhibition in comparison to untreated samples 3 days after infestation. Control of Spodoptera littoralis by a test sample is when at least one of mortality, anti-feedant effect, and growth inhibition is higher than the untreated sample.

CCS(=O)(=O)c1cc(C2(C#N)CC2)cnc1-c1nc2cc(C(F)(F)F)ncc2n1C [P16]
≥ 80%: percent control (mortality, anti-feedancy or growth inhibition) at 12.5 ppm [1] | percent effect (mortality or growth inhibition) at 200 ppm [2] | percent effect (mortality or growth inhibition) at 200 ppm [3] | mortality at 200 ppm [4] | mortality at 200 ppm [5] | mortality at 24 ppm [6] | mortality at 200 ppm [7] | mortality at 200 ppm [8] | mortality at 200 ppm [9] | percent control (mortality, anti-feedant effect or growth inhibition) at 200 ppm [10]
